Target: 125I-streptavidin (Streptomyces avidinii, UniProt P22629)
Sequence (P22629 25-183): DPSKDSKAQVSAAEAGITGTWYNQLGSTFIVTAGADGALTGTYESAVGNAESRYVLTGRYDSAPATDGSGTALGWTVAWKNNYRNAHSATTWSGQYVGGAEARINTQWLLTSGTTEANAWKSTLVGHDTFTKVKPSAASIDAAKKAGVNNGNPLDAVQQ

O=C1NCC(C(=O)O)N1 (stereo not shown) [2-imidazolidone-4-carboxylic acid]
signal in scintillation proximity assay (binding to 125I-streptavidin): lower signal

— US6340588B1, “Matrices with memories” (Discovery Partners International, Inc., priority 1995, dated 2002)
